In experiment [1] the target is T1, 5-lipoxygenase (Rattus norvegicus, UniProt P12527).
T1 construct: The resulting supernatant liquid was used as an enzymatic solution; endogenous in cells; host or cells: rat basophil leukemia-1 (RBL-1) cells, supernatant after sonication
T1 sequence (P12527 1-673): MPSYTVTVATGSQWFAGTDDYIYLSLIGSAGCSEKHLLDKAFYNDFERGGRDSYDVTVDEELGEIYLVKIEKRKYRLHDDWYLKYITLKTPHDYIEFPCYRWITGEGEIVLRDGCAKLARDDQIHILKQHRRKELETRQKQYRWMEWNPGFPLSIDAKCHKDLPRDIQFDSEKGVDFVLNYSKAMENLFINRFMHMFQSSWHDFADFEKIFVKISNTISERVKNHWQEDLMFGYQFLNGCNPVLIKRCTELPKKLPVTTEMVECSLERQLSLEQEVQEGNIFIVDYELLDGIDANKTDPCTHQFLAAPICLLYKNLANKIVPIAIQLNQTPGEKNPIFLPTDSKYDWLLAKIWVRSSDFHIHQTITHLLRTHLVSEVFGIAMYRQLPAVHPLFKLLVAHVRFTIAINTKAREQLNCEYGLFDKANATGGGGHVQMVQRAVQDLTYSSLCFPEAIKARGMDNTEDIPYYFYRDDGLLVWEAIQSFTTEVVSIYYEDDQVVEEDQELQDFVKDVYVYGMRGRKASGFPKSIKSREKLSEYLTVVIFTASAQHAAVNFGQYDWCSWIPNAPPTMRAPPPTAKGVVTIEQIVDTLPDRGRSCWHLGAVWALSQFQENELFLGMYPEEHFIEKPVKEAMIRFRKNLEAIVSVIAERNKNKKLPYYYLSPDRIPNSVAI
Nature of the experiment: 5-Lipoxygenase activity-inhibiting action (5-HETE biosynthesis, rat basophil leukemia-1 cell supernatant). The class given is biochemical. How it is done:
5-Lipoxygenase activity-inhibiting action
Rat basophil leukemia-1 cells were suspended in a 50 mM phosphate buffer solution (PBS) of pH 7.0 containing 1 mM of EDTA, 0.1% of gelatin and 14 μM of indometacin so that the resulting suspension contained 5×10^7 cels cells/ml ml. The suspension was subjected to an ultrasonic treatment and then to centrifugation (10,000G, 20 minutes). The resulting supernatant liquid was used as an enzymatic solution. 10 μl of a test compound solution was added to 460 μl of the enzymatic solution and a reaction was conducted at 37° C. for 5 minutes. Thereto were added 7.4 KBq of ^14 C-arachidonic acid and a 100 mM aqueous calcium chloride solution, and a reaction was conducted at 37° C. for 10 minutes. The reaction mixture was ice-cooled and then adjusted to pH 3 with 1N hydrochloric acid to terminate the reaction. Thereafter, extraction with 5 ml of chloroform was conducted. The extract was subjected to evaporation to dryness in the presence of nitrogen gas, and the residue was dissolved in a 2:1 mixture of chloroform and methanol. The solution was developed by thin-layer chromatography using Kieselgel 60 F254, according to the method of Jakschik, B. A. et al. [Biachen. Biophys. Res. Commun. 95, 103 (1980)]. The radioactivity of 5-hydroxyeicosatetraenoic acid (5-HETE) was measured by a liquid scintillation counter (LSC-900 manufactured by Aroka) to determine the ratio of 5-HETE biosynthesis inhibition of test compound-added group to control group, after which there was determined a concentration of test compound at which the activity of 5-lipoxygenase was inhibited by 50%, i.e. an IC50. The test compound was used in a diluted form by dissolving it in dimethyl sulfoxide. The results are shown in Tables 1, 2 and 3 which appear later.

Experiment [2] has as its system mast cells. The experiment can be described thus: Membrane-stabilizing action (mast cell degranulation). The format is cell-based. The following applies: Rattus norvegicus, 10^-4 M. How it is done:
Membrane-stabilizing action
This test was conducted according to the method of Schwartz, J. et al. [Int. Arch. Allergy 30, 67 (1966)].
That is, 10 ml each of Hnak's balanced salt solution containing 10 units/ml of heparin was administered to rats intraperitoneally. After gentle massage of the abdomen for 2 minutes, peritoneal exudate cells (PEC) were obtained and washed 3 times with PBS containing 0.1% of bovine serum albumin (BSA). Mast cells in the suspension of PEC were stained with 0.2% of Neutral Red, and PEC were adjusted to a concentration of 4×10^5 mast cells/ml using PBS containing 0.1% of BSA. The cell suspension (50 μl) was incubated with 50 μl of a test compound solution at 37° C. for 5 minutes, then challenged with anti-egg albumin rat serum (50 μl, 1:40) and egg albumin (50 μl, 10 mg/ml) and further incubation was performed for 10 minutes. The reaction mixture was ice-cooled to terminate the reaction. Thereafter the number of mast cells undergoing degranulation was assessed under microscope observation to determine the menbrane-stabilizing action of the test compound.

The test system of experiment [3] is tracheal chain. The experiment can be described thus: Histamine antagonism (isolated guinea pig tracheal chain contraction). The class given is cell-based. The following applies: Cavia porcellus, 5 min; 10^-5 M test compound; 3×10^-5 M histamine hydrochloride. As to the method: Guinea pigs were sacrificed and the tracheae were isolated. Each trachea was cut open at the center of the tracheal cartilage, and was cut in the vertical direction to separate into individual segments. Three of these segments were combined to form a tracheal chain. The tracheal chain was suspended in a Magnus tube filled with a Tyrode's solution (NaCl: 137 mX, KCl: 2.7 mM, CaCl2 : […], MgCl2 : 1.1 mM, NaHPO4 : 0.4 mM, NaHCO3 : 12.0 mM, glucose: 5.6 mM) kept at 37° C., while applying a load of 0.5 g. A mixed gas consisting of 95% of O2 and 5% of CO2 was constantly passed through the tube, and the contraction of the smooth muscle was recorded on a polygraph (U-228 manufactured by NIPPON DENKI KAGAKU) via an isotonic transducer (TD-112S manufactured by Nihon Koden). Each test compound was incubated for 5 minutes before the addition of 3×10^-5 M of histamine hydrochloride (a product of Wako Pure Chemical Industries, Ltd.).

The target in experiment [4] is T2, TXA2 synthetase (Homo sapiens, UniProt P24557).
T2 construct: human platelet microsome fraction; purchased Funakoshi: Eldan Tech; host or cells: human platelet microsome fraction (thromboxane synthetase kit)
T2 sequence (P24557 1-533): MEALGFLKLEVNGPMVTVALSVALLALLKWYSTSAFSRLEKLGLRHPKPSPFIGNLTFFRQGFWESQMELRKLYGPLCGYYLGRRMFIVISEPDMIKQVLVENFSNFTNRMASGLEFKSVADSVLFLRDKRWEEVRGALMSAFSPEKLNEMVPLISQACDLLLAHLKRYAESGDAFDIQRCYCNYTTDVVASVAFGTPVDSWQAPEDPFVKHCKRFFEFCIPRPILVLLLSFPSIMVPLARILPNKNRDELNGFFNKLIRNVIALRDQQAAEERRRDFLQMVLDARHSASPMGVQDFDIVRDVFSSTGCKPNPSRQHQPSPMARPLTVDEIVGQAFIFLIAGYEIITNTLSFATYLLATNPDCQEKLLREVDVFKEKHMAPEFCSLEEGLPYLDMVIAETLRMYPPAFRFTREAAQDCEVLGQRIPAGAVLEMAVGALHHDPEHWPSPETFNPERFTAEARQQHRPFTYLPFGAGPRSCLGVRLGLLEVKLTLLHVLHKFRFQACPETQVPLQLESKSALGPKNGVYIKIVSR
Nature of the experiment: TX synthesis-inhibiting action (thromboxane synthetase kit, human platelet microsome). The format is biochemical. The conditions noted are these: 3 × 10^-6 M. As to the method:
TX synthesis-inhibiting action
TXA2 synthetase activity was measured by the use of a thromboxane synthetase kit (Funakoshi: Eldan Tech). That is, 0.97 mg of a human platelet microsome fraction was suspended in 1 m of a 50 mM tris-0.1M sodium chloride buffer solution of pH 7.5, and the resulting suspension was ice-cooled. […] of the suspension was placed in a sample tube and a test compound was added thereto. The resulting mixture was preincubated at 25° C. exactly for 3 minutes. Thereto was added 2μ of an ice-cooled acetone solution containing 0.05 mg/m of PGH2, and the resulting mixture was incubated at 25° C. exactly for 3 minutes. 10μ of a 0.25 mM FeCl2 solution was added to terminate the reaction. The resulting mixture was allowed to stand at room temperature for 15 minutes and then subjected to centrifugation at 1,000 G at 4° C. for 10 minutes. The TXB2 content contained in the supernatant was measured by RIA (thromboxanes B2 [3H] RIA Kit: NEN Research Products). The test compound was dissolved in DMSO or distilled water before use. The test was performed in triplicate or quadruplicate assays.

A word on the IC50: it is the concentration at which inhibition is half-maximal. As usually defined, the inhibition is the percentage by which the read-out fell short of the control. Take `CC(=O)Oc1cccc2cc(C(=O)NCCN3CCN(CCSCc4cccs4)CC3)c(O)cc12` [Example 4, N-[2-[4-(thienylmethylthio)ethyl-1-piperazinyl]ethyl]-5-acetoxy-3-hydroxy-2-naphthamide]: the IC50 in experiment [1] (Table 1) was found to be 320 nM. Besides, 100 µM produced 53.7% inhibition in experiment [2].

Turning to `CC(=O)Oc1cccc2cc(C(=O)NCCN3CCC(OC(c4ccccc4)c4ccccc4)CC3)c(O)cc12` [Example 5, N-[2-[4-(benzhydryloxy)piperidino]ethyl]-5-acetoxy-3-hydroxy-2-naphthamide], the inhibition at 10 µM in experiment [3] came out at 65.4%. This compound had an IC50 in experiment [1] (Table 1) of 410 nM. For the same compound, the inhibition at 100 µM in experiment [2] is 96.5%.

In experiment [1] (Table 3), `CC(=O)Oc1cccc2cc(C(=O)NCCN3CCN(CCSC(c4ccncc4)c4ccc(Cl)cc4)CC3)c(O)cc12` (stereo not drawn) [Example 15] came in with an IC50 of 300 nM. In addition, in experiment [4], at 3 µM the inhibition was 73.2%.

In experiment [1] (Table 1), `O=C(NCCN1CCN(CCSC(c2ccc(Cl)cc2)c2ccc(Cl)cc2)CC1)c1cc2cccc(O)c2cc1O` [Example 21] showed an IC50 of 250 nM. In addition, the inhibition at 100 µM in experiment [2] turned out to be 100%.

As to `O=C(NCCN1CCC(OC(c2ccccc2)c2ccccc2)CC1)c1cc2cccc(O)c2cc1O` [Example 34, N-[2-[4-(benzhydryloxy)piperidino]ethyl]-3,5-dihydroxy-2-naphthamide], testing at 10 µM in experiment [3] gave an inhibition of 64.7%. In experiment [1] (Table 1), this compound yielded an IC50 of 150 nM. This compound gave an inhibition at 100 µM in experiment [2] of 41%.

As for `O=C(NCCN1CCC(OC(c2ccccc2)c2ccccc2)CC1)c1cc2cc(O)ccc2cc1O` [Example 35, N-[2-[4-(benzhydryloxy)piperidino]ethyl]-3,7-dihydroxy-2-naphthamide], the inhibition at 10 µM in experiment [3] came out at 67.9%. For the same compound, the IC50 in experiment [1] (Table 2) amounted to 270 nM.

In experiment [1] (Table 1), `O=C(NCCN1CCC(OC(c2ccccc2)c2ccccc2)CC1)c1cc2cccc(OCc3cccnc3)c2cc1O` [Example 42, N-[2-[4-(benzhydryloxy)piperidino]ethyl]-3-hydroxy-5-(3-pyridylmethoxyl)-2-naphthamide] gave an IC50 of 5100 nM. In experiment [2], at 100 µM the inhibition was 60.1%.

As to `O=C(NCCN1CCC(OC(c2ccccc2)c2ccccc2)CC1)c1cc2cccc(OCc3ccncc3)c2cc1O` [Example 43, N-[2-[4-(benzhydryloxy)piperidino]ethyl]-3-hydroxy-5-(4-pyridylmethoxyl)-2-naphthamide], in experiment [3], 10 µM produced 48.2% inhibition. The compound also registered a half-inhibitory concentration (IC50) in experiment [1] (Table 2) of 110 nM. This compound registered an inhibition at 100 µM in experiment [2] of 80.7%. This compound registered an inhibition at 3 µM in experiment [4] of 75.6%.

In the case of `O=C(NCCCCCSCc1cccs1)c1cc2cccc(O)c2cc1O` [Example 44, N-[5-(2-thienylmethylthio)pentyl]-3,5-dihydroxy-2-naphthamide], the inhibition at 3 µM in experiment [4] worked out at 61.8%.

(Values after patent publication US5324728A, “Naphthoic acid derivative” (Fujirebio Inc., priority 1990, dated 1994).)
